Results reported in the NIST ThermoML archive (doi:10.1021/je800157v).
± gives the expanded uncertainty stated by the source.

Experiment: xn = mol fraction of the nth substance listed
Conditions: 101 kPa, Liquid

CCC(C)O (stereo unspecified) [butan-2-ol] + c1ccccc1
mass density [kg/m3]
Conditions | 288.15 K | 293.15 K | 298.15 K | 303.15 K | 308.15 K | 313.15 K
x1 = 0.0511 | 879.01 ± 0.32 | 873.67 ± 0.33 | 868.33 ± 0.33 | 862.98 ± 0.34 | 857.61 ± 0.35 | 852.24 ± 0.36
x1 = 0.0995 | 874.6 ± 0.33 | 869.29 ± 0.33 | 863.96 ± 0.34 | 858.62 ± 0.35 | 853.25 ± 0.36 | 847.89 ± 0.37
x1 = 0.1508 | 870.04 ± 0.34 | 864.77 ± 0.34 | 859.48 ± 0.35 | 854.17 ± 0.36 | 848.83 ± 0.37 | 843.48 ± 0.38
x1 = 0.2013 | 865.76 ± 0.35 | 860.54 ± 0.35 | 855.3 ± 0.36 | 850.02 ± 0.37 | 844.72 ± 0.38 | 839.39 ± 0.39
x1 = 0.2482 | 861.91 ± 0.36 | 856.74 ± 0.36 | 851.54 ± 0.37 | 846.3 ± 0.38 | 841.03 ± 0.39 | 835.75 ± 0.4
x1 = 0.2999 | 857.8 ± 0.37 | 852.69 ± 0.37 | 847.54 ± 0.38 | 842.35 ± 0.39 | 837.13 ± 0.4 | 831.88 ± 0.41
x1 = 0.3486 | 854.03 ± 0.38 | 848.96 ± 0.38 | 843.86 ± 0.39 | 838.72 ± 0.4 | 833.54 ± 0.41 | 828.34 ± 0.42
x1 = 0.3995 | 850.21 ± 0.39 | 845.2 ± 0.4 | 840.14 ± 0.4 | 835.05 ± 0.41 | 829.92 ± 0.42 | 824.76 ± 0.43
x1 = 0.4509 | 846.44 ± 0.4 | 841.48 ± 0.41 | 836.49 ± 0.42 | 831.44 ± 0.42 | 826.35 ± 0.43 | 821.21 ± 0.44
x1 = 0.5003 | 842.93 ± 0.41 | 838.02 ± 0.42 | 833.08 ± 0.43 | 828.08 ± 0.43 | 823.04 ± 0.44 | 817.96 ± 0.45
x1 = 0.5498 | 839.48 ± 0.42 | 834.64 ± 0.43 | 829.75 ± 0.44 | 824.82 ± 0.45 | 819.82 ± 0.45 | 814.8 ± 0.46
x1 = 0.5953 | 836.41 ± 0.44 | 831.62 ± 0.44 | 826.79 ± 0.45 | 821.91 ± 0.46 | 816.96 ± 0.46 | 811.96 ± 0.47
x1 = 0.6487 | 832.84 ± 0.45 | 828.13 ± 0.46 | 823.37 ± 0.46 | 818.56 ± 0.47 | 813.68 ± 0.48 | 808.75 ± 0.48
x1 = 0.7006 | 829.46 ± 0.46 | 824.83 ± 0.47 | 820.15 ± 0.48 | 815.4 ± 0.48 | 810.59 ± 0.49 | 805.73 ± 0.5
x1 = 0.7493 | 826.32 ± 0.48 | 821.78 ± 0.48 | 817.17 ± 0.49 | 812.5 ± 0.5 | 807.75 ± 0.5 | 802.95 ± 0.51
x1 = 0.802 | 822.97 ± 0.49 | 818.51 ± 0.5 | 814 ± 0.5 | 809.41 ± 0.51 | 804.74 ± 0.52 | 800.01 ± 0.52
x1 = 0.8501 | 819.96 ± 0.51 | 815.6 ± 0.51 | 811.17 ± 0.52 | 806.66 ± 0.52 | 802.07 ± 0.53 | 797.4 ± 0.53
x1 = 0.9003 | 816.84 ± 0.52 | 812.58 ± 0.53 | 808.25 ± 0.53 | 803.84 ± 0.54 | 799.34 ± 0.54 | 794.77 ± 0.55
x1 = 0.9206 | 815.57 ± 0.53 | 811.36 ± 0.53 | 807.07 ± 0.54 | 802.7 ± 0.54 | 798.25 ± 0.55 | 793.72 ± 0.55
x1 = 0.9479 | 813.92 ± 0.53 | 809.76 ± 0.54 | 804.85 ± 0.55 | 801.21 ± 0.55 | 796.18 ± 0.56 | 791.73 ± 0.56
x1 = 1 | 810.64 ± 0.55 | 806.59 ± 0.56 | 802.47 ± 0.56 | 798.27 ± 0.57 | 793.97 ± 0.57 | 789.59 ± 0.58

ClC(Cl)Cl [trichloromethane] + CCC(C)O
mass density [kg/m3]
Conditions | 288.15 K | 293.15 K | 298.15 K | 303.15 K | 308.15 K | 313.15 K
x2 = 0 | 1498.08 ± 0.92 | 1488.64 ± 0.91 | 1479.15 ± 0.89 | 1469.61 ± 0.88 | 1460.03 ± 0.86 | 1450.41 ± 0.85
x2 = 0.0514 | 1455.49 ± 0.88 | 1446.33 ± 0.86 | 1437.12 ± 0.85 | 1427.86 ± 0.83 | 1418.55 ± 0.82 | 1409.22 ± 0.8
x2 = 0.1045 | 1413.17 ± 0.82 | 1404.26 ± 0.8 | 1395.31 ± 0.79 | 1386.31 ± 0.77 | 1377.26 ± 0.76 | 1368.2 ± 0.75
x2 = 0.1518 | 1376.62 ± 0.77 | 1367.94 ± 0.75 | 1359.22 ± 0.74 | 1350.44 ± 0.72 | 1341.17 ± 0.71 | 1332.78 ± 0.7
x2 = 0.1962 | 1342.92 ± 0.72 | 1334.49 ± 0.71 | 1326.01 ± 0.69 | 1317.48 ± 0.68 | 1308.89 ± 0.67 | 1300.27 ± 0.65
x2 = 0.2512 | 1302.06 ± 0.67 | 1293.92 ± 0.65 | 1285.73 ± 0.64 | 1277.49 ± 0.63 | 1269.19 ± 0.61 | 1260.86 ± 0.6
x2 = 0.2998 | 1266.64 ± 0.62 | 1258.77 ± 0.61 | 1250.84 ± 0.59 | 1242.86 ± 0.58 | 1234.82 ± 0.57 | 1226.74 ± 0.55
x2 = 0.3507 | 1230.33 ± 0.57 | 1222.74 ± 0.56 | 1215.09 ± 0.55 | 1207.39 ± 0.53 | 1199.64 ± 0.52 | 1191.86 ± 0.51
x2 = 0.3995 | 1196.11 ± 0.53 | 1188.78 ± 0.51 | 1181.4 ± 0.5 | 1173.96 ± 0.49 | 1166.47 ± 0.48 | 1158.94 ± 0.46
x2 = 0.4502 | 1161.11 ± 0.48 | 1154.06 ± 0.47 | 1146.95 ± 0.46 | 1139.78 ± 0.44 | 1132.56 ± 0.43 | 1125.28 ± 0.42
x2 = 0.4978 | 1128.73 ± 0.44 | 1121.94 ± 0.42 | 1115.08 ± 0.41 | 1108.17 ± 0.4 | 1101.2 ± 0.39 | 1094.2 ± 0.38
x2 = 0.546 | 1096.47 ± 0.39 | 1089.93 ± 0.38 | 1083.34 ± 0.37 | 1076.68 ± 0.36 | 1069.96 ± 0.35 | 1063.21 ± 0.34
x2 = 0.6008 | 1060.39 ± 0.35 | 1054.14 ± 0.34 | 1047.83 ± 0.33 | 1041.47 ± 0.31 | 1035.03 ± 0.3 | 1028.55 ± 0.29
x2 = 0.6498 | 1028.63 ± 0.31 | 1022.64 ± 0.3 | 1016.59 ± 0.29 | 1010.48 ± 0.27 | 1004.3 ± 0.26 | 998.07 ± 0.26
x2 = 0.7008 | 995.87 ± 0.27 | 990.15 ± 0.28 | 984.37 ± 0.29 | 978.52 ± 0.29 | 972.61 ± 0.3 | 966.65 ± 0.31
x2 = 0.7446 | 968.17 ± 0.32 | 962.68 ± 0.32 | 957.13 ± 0.33 | 951.51 ± 0.34 | 945.82 ± 0.34 | 940.07 ± 0.35
x2 = 0.7984 | 934.4 ± 0.37 | 929.2 ± 0.38 | 923.93 ± 0.38 | 918.6 ± 0.39 | 913.19 ± 0.39 | 907.74 ± 0.4
x2 = 0.8507 | 901.92 ± 0.42 | 897 ± 0.43 | 892.02 ± 0.43 | 886.97 ± 0.44 | 881.84 ± 0.44 | 876.65 ± 0.45
x2 = 0.9 | 871.62 ± 0.47 | 866.99 ± 0.47 | 862.29 ± 0.48 | 857.51 ± 0.48 | 852.65 ± 0.49 | 847.72 ± 0.5
x2 = 0.9486 | 841.91 ± 0.51 | 837.56 ± 0.52 | 833.14 ± 0.52 | 828.64 ± 0.53 | 824.05 ± 0.54 | 819.39 ± 0.54
